# Results as given in ChEMBL document CHEMBL4325881, “Facile synthesis of 2-aryl 5-hydroxy benzo[d]oxazoles and their in vitro anti-proliferative effects on various cancer cell lines” (Bioorg Med Chem Lett, 2018).
# pIC50: −log10 of the molar value.
# Assays:
# [1] = test system: A549; assay: Cytotoxicity against human A549 cells assessed as reduction in cell viability after 48 hrs by MTT assay; assay type: functional, cell-based; settings: A549, 48 h
# [2] = Cytotoxicity against human […] cells assessed as reduction in cell viability after 48 hrs by MTT assay; assay type: functional, cell-based
# [3] = test system: MDA-MB-231; assay: Cytotoxicity against human MDA-MB-231 cells assessed as reduction in cell viability after 48 hrs by MTT assay; assay type: functional, cell-based; settings: MDA-MB-231, 48 h
# [4] = test system: HeLa; assay: Cytotoxicity against human HeLa cells assessed as reduction in cell viability after 48 hrs by MTT assay; assay type: functional, cell-based
# [5] = test system: HepG2; assay: Cytotoxicity against human HepG2 cells assessed as reduction in cell viability after 48 hrs by MTT assay; assay type: functional, cell-based; settings: HepG2, 48 h
# [6] = test system: HaCaT; assay: Cytotoxicity against human HaCaT cells assessed as reduction in cell viability after 48 hrs by MTT assay; assay type: cell-based
Compound,pIC50 [1],pIC50 [2],pIC50 [3],pIC50 [4],pIC50 [5],pIC50 [6]
CC(=O)c1c(O)ccc2oc(-c3ccccc3C)nc12,4.70,4.76,4.52,4.72,4.93,5.05
Cc1ccccc1-c1nc2c(C=O)c(O)ccc2o1,5.66,5.01,5.27,4.81,5.32,4.91
COc1cccc2c1C(=O)c1c(O)c3c(c(O)c1C2=O)C[C@@](O)(C(=O)CO)C[C@@H]3O[C@H]1C[C@H](N)[C@H](O)[C@H](C)O1 [DOXORUBICIN],6.47,5.80,–,6.96,6.28,6.28
